Data: patent US11266655B2, “Methods and compositions for treating urea cycle disorders” (Camp4 Therapeutics Corporation, priority 2019, dated 2022)
Entries after “also recorded” stand apart in the source; their conditions may differ.

What was measured:
[1] = system: OTC; test: JAK1 FANA ASO knockdown in primary human hepatocytes, OTC mRNA; assay type: cell-based; settings: 10 uM FANA ASO, 5 days post-plating, vs scrambled control; listed as FANA (2′-deoxy-2′-fluoro-beta-D-arabinonucleic acid antisense) RNA
[2] = system: CPS1; test: JAK1 FANA ASO knockdown in primary human hepatocytes, CPS1 mRNA; assay type: cell-based; settings: 10 uM FANA ASO, 5 days post-plating, vs scrambled control; listed as FANA (2′-deoxy-2′-fluoro-beta-D-arabinonucleic acid antisense) RNA
[3] = system: OTC; test: CPS1 siRNA with or without JAK1 FANA ASO, OTC mRNA; assay type: cell-based, human; settings: FIG. 24C, 24D
Description: (§1) Next, the link between CPS1 expression and OTC expression was investigated. siRNA targeting CPS1 was added to wells with media and the cells added to the wells (reverse transfection). The next day, the media was refreshed, and in some samples a FANA antisense oligonucleotide (ASO) directed to JAK1 was added to the wells. A scrambled ASO was used as a control for the treatment. After incubating with the JAK1 or scrambled ASO for 48 h, the cells were re-transfected with siRNA targeting CPS1 and incubated overnight (forward transfection) after which the media was refreshed. Cells were further incubated for 24 hours and harvested for analysis of the CPS1, OTC, and JAK1 mRNA expression levels. Similar methods were used to prepare cells with only the JAK1 FANA treatment and the CPS1 forward transfection, or only the CPS1 forward transfection. Scrambled RNA (NTC) was used as a control for CPS1 knockdown.

[4] = system: CPS1; test: CPS1 siRNA with or without JAK1 FANA ASO, CPS1 mRNA; assay type: cell-based, human; settings: FIG. 24A, 24B
Description: as §1

[5] = system: OTC; test: HSP90 or HSP70 inhibitors in primary human hepatocytes, OTC mRNA; assay type: cell-based; settings: hepatocytes from Donor B, normalized to B2M
[6] = system: CPS1; test: HSP90 or HSP70 inhibitors in primary human hepatocytes, CPS1 mRNA; assay type: cell-based; settings: hepatocytes from Donor B, normalized to B2M
[7] = system: OTC; test: HSP90 inhibitor dose titration in hepatocytes of donors A and B, OTC mRNA normalized to B2M; assay type: cell-based, human; settings: 18 hours
Description: (§2) Additional small molecules that inhibit HSP90 or HSP70 were tested in primary human hepatocytes as described in Example 2. HSP90 or HSP70 inhibitors were tested in triplicate at 0.3 μM and 3 μM. The results are shown as the fold change (mRNA FC) in the mRNA levels of OTC and CPS1 genes after treatment compared to an untreated control (DMSO) and the standard deviation (SD). In addition, a dose titration experiment was performed with selected HSP90 inhibitors. Hepatocytes were incubated with increasing concentrations of HSP90 inhibitors and the changes in OTC and CPS1 expression quantified as previously described.
(§3) Hepatocytes from two different donors (A and B) were incubated with the various concentrations of HSP90 inhibitors for 18 hours and harvested for mRNA analysis. OTC and CPS1 mRNA were normalized to house keeping gene B2M gene expression.

[8] = system: CPS1; test: HSP90 inhibitor dose titration in hepatocytes of donors A and B, CPS1 mRNA normalized to B2M; assay type: cell-based, human; settings: 18 hours
Description: as §2, §3

[9] = system: Hep3B cells; test: Urea production in Hep3B cells, Blood Urea Nitrogen Assay Kit on spent media; assay type: cell-based, human; settings: increasing concentrations from 0.03 μM
[10] = system: CPS1; test: Urea cycle gene expression in Hep3B cells, CPS1; assay type: cell-based, human; settings: FIG. 31B
[11] = system: ARG1; test: Urea cycle gene expression in Hep3B cells, ARG1; assay type: cell-based, human; settings: FIG. 31B
[12] = system: ASS1; test: Urea cycle gene expression in Hep3B cells, ASS1; assay type: cell-based, human; settings: FIG. 31B
[13] = system: NAGS; test: Urea cycle gene expression in Hep3B cells, NAGS; assay type: cell-based, human; settings: FIG. 31B
[14] = system: HSP90; settings: cited from earlier work
[15] = system: chromatin domain upstream of the OTC gene; test: ATAC-seq of the OTC insulated neighborhood in inhibitor-treated hepatocytes; settings: 17 hours of inhibitor treatment
[16] = system: OTC; test: JAK inhibitors at 0.3 and 3 μM in primary human hepatocytes, OTC mRNA fold change; assay type: cell-based; settings: fold change vs DMSO
Description: (§4) Additional small molecules that inhibit JAK1, JAK2, JAK3, or a combination of the JAK proteins were tested in primary human hepatocytes as described in Example 2. JAK inhibitors were tested in triplicate at 0.3 μM and 3 μM. The results are shown as the fold change (mRNA FC) in the mRNA levels of OTC and CPS1 genes after treatment compared to an untreated control (DMSO) and the standard deviation (SD).

[17] = system: CPS1; test: JAK inhibitors at 0.3 and 3 μM in primary human hepatocytes, CPS1 mRNA fold change; assay type: cell-based; settings: fold change vs DMSO
Description: as §4

[18] = system: Cps1; test: JAK1 inhibitors in C57/B16 mice, liver Cps1 mRNA by qRT-PCR; assay type: in vivo, mouse; settings: i.p. once daily for 4 days, 6 hours after administration, vs control treated mice
[19] = system: Otc; test: JAK1 inhibitors in C57/B16 mice, liver Otc mRNA by qRT-PCR; assay type: in vivo, mouse; settings: i.p. once daily for 4 days, 6 hours after administration, vs control treated mice
[20] = system: Socs1; test: JAK1 inhibitors in C57/B16 mice, Socs1 mRNA; assay type: in vivo, mouse; settings: i.p. once daily for 4 days
[21] = system: OTC; test: siRNA knockdown of JAK/STAT/IRF genes in hepatocytes, OTC mRNA; assay type: cell-based, human; settings: 10 nM siRNA plus 0.03 nM JAK1 siRNA, FIG. 27C
Excerpt: (§5) To confirm that JAK1 inhibition is necessary for OTC and CPS1 gene expression increase, JAK1, JAK2, and JAK3 expression was knocked down using the siRNA methods previously described in Example 1 (JAK1 siRNA Dharmacon #M-003145-02-0005; JAK2 siRNA Dharmacon #M-003146-02-0005; JAK3 siRNA Dharmacon #M-003147-01-0005). The cells were harvest for mRNA collection and quantification as previously described.
In addition, STAT5B is a JAK1 signal transducer and transcription factor activated by JAK1. STAT5B was knocked down in hepatocytes using siRNA (Dharmacon cat #M-010539-02-0005) as previously described in Example 1. The cells were harvest for mRNA collection and quantification as previously described.
(§6) To confirm the role of JAK1 and investigate the role of other signaling proteins and transcription factors in OTC and CPS1 expression, a panel of additional genes were knocked down with siRNA alone or in combination with JAK1. In particular, JAK2 was knockdown alone or in combination with JAK1. The combinations are shown in FIG. 26A and FIG. 26B. siRNA used to knock down JAK1 and JAK2 were: JAK1 siRNA Dharmacon #M-003145-02-0005; JAK2 siRNA Dharmacon #M-003146-02-0005. OTC and CPS1 mRNA expression was normalized to B2M. The assay was performed in triplicate in three donor hepatocyte cell lines: 371, 171, and 511A.
(§7) Cells were harvested after siRNA treatment for mRNA quantification. JAK1, OTC, and CPS1 mRNA levels were normalized to GUSB.

[22] = system: CPS1; test: siRNA knockdown of JAK/STAT/IRF genes in hepatocytes, CPS1 mRNA; assay type: cell-based, human; settings: 10 nM siRNA plus 0.03 nM JAK1 siRNA, FIG. 27D
Excerpt: as §5, §6, §7

[23] = system: Otc; test: EC144 in C57/B16 mice, liver Otc mRNA by qRT-PCR; assay type: in vivo, mouse
Description: (§8) The in vivo effect of EC144 was assessed.

[24] = system: Cps1; test: EC144 in C57/B16 mice, liver Cps1 mRNA by qRT-PCR; assay type: in vivo, mouse
Description: as §8

[25] = system: Ass1; test: EC144 in C57/B16 mice, liver Ass1 mRNA by qRT-PCR; assay type: in vivo, mouse; settings: 5 mg/kg i.p. once daily for 4 days, FIG. 32
Description: as §8

[26] = EC144 in C57/B16 mice, liver As1 mRNA by qRT-PCR; assay type: in vivo, mouse; settings: 5 mg/kg i.p. once daily for 4 days, FIG. 32
Description: as §8

[27] = system: Arg1; test: EC144 in C57/B16 mice, liver Arg1 mRNA by qRT-PCR; assay type: in vivo, mouse; settings: 5 mg/kg i.p. once daily for 4 days, FIG. 32
Description: as §8

[28] = EC144 in C57/B16 mice, serum urea levels (Blood Urea Nitrogen Assay Kit); assay type: in vivo, mouse; settings: 5 mg/kg i.p. once daily for 4 days, 5 h, 7 h or 9 h post-dose, vs vehicle
Description: as §8
Serum urea levels were measured using the Blood Urea Nitrogen Assay Kit (Invitrogen, Cat #EIABUN) per manufacturer's instructions. The data was plotted in GraphPad and statistical significance of the data sets determined using the Holm-Sidak method for multiple comparisons (α=0.05).

[29] = system: Nags; settings: mice, 5 mg/kg i.p. once daily for 4 days, FIG. 32
[30] = mice, 5 mg/kg i.p. once daily for 4 days, FIG. 32

Compound: JAK1 FANA: 2′-deoxy-2′-fluoro-beta-D-arabinonucleic acid antisense oligonucleotide to JAK1, sequence TTGTAGCTGATGTCCTTGGG (FANA (2'-fluoro-arabino) ASO, modification pattern and linkages not given here)
- OTC gene expression after JAK1 FANA ASO [1]: increased
- CPS1 gene expression after JAK1 FANA ASO [2]: increased
- OTC expression after CPS1 siRNA and/or JAK1 FANA [3]: increased
- CPS1 mRNA levels after CPS1 siRNA and/or JAK1 FANA [4]: increased

Compound: COc1c(C)cnc(Cn2cnc3c(Cl)nc(N)nc32)c1C [BIIB021]
- OTC Expression mRNA FC ([5]; 0.3 uM): 0.95
- OTC Expression mRNA FC ([5]; 3 uM): 3.12
- CPS1 Expression mRNA FC ([6]; 0.3 uM): 0.67
- CPS1 Expression mRNA FC ([6]; 3 uM): 2.18
- OTC mRNA FC, Donor A ([7]; 0.03 uM): 0.84
- OTC mRNA FC, Donor B ([7]; 0.03 uM): 1.24
- OTC mRNA FC, Donor A ([7]; 0.1 uM): 1.13
- OTC mRNA FC, Donor B ([7]; 0.1 uM): 4.23
- OTC mRNA FC, Donor A ([7]; 0.3 uM): 2.46
- OTC mRNA FC, Donor B ([7]; 0.3 uM): 15.30
- OTC mRNA FC, Donor A ([7]; 1 uM): 5.86
- OTC mRNA FC, Donor B ([7]; 1 uM): 9.49
- OTC mRNA FC, Donor A ([7]; 3 uM): 6.12
- OTC mRNA FC, Donor B ([7]; 3 uM): 6.59
- OTC mRNA FC, Donor A ([7]; 10 uM): 7.61
- OTC mRNA FC, Donor B ([7]; 10 uM): 7.17
- CPS1 mRNA FC, Donor A ([8]; 0.03 uM): 0.98
- CPS1 mRNA FC, Donor B ([8]; 0.03 uM): 1.05
- CPS1 mRNA FC, Donor A ([8]; 0.1 uM): 1.40
- CPS1 mRNA FC, Donor B ([8]; 0.1 uM): 1.93
- CPS1 mRNA FC, Donor A ([8]; 0.3 uM): 1.54
- CPS1 mRNA FC, Donor B ([8]; 0.3 uM): 1.95
- CPS1 mRNA FC, Donor A ([8]; 1 uM): 2.75
- CPS1 mRNA FC, Donor B ([8]; 1 uM): 1.37
- CPS1 mRNA FC, Donor A ([8]; 3 uM): 4.27
- CPS1 mRNA FC, Donor B ([8]; 3 uM): 1.13
- CPS1 mRNA FC, Donor A ([8]; 10 uM): 6.41
- CPS1 mRNA FC, Donor B ([8]; 10 uM): 1.83
- urea production [9]: dose-dependent increase; also recorded: increases
- CPS1 expression in Hep3B cells [10]: Increases
- ARG1 expression in Hep3B cells [11]: Increases
- ASS1 expression in Hep3B cells [12]: Increases
- NAGS expression in Hep3B cells [13]: Increases
- accessibility of previously available chromatin upstream of the OTC gene (ATAC-seq) [15]: increase in accessibility
- newly accessible chromatin domain upstream of the OTC gene (ATAC-seq) [15]: newly accessible chromatin domain

Compound: C[C@@H]1CCN(C(=O)CC#N)C[C@@H]1N(C)c1ncnc2[nH]ccc12 [tofacitinib]
- OTC mRNA FC ([16]; 0.3 uM): 3.2
- OTC mRNA FC ([16]; 3 uM): 5.17
- CPS1 mRNA FC ([17]; 0.3 uM): 1.67
- CPS1 mRNA FC ([17]; 3 uM): 2.54
- Cps1 expression in liver [18]: increased
- Otc expression in liver [19]: increase
- Socs1 mRNA expression [20]: decreased

Compound: IRF9 (DNA AWCGAAACCGAAACY; target site or template, no part of the molecule; chemistry not given here)
- OTC expression after knockdown in combination with JAK1 [21]: increased
- CPS1 expression after knockdown in combination with JAK1 [22]: increased

Compound: COc1c(C)cnc(Cn2cc(C#CCC(C)(C)O)c3c(Cl)nc(N)nc32)c1C [EC144]
- Otc expression in vivo ([23]; 5 h after administration, FIG. 33A): increased
- Otc expression in vivo [23, 30]: increased
- Cps1 expression over time ([24]; 9 h after administration as compared to 5 h): greater expression
- Cps1 expression in vivo ([24]; at 5 h, 7 h, and 9 h after administration, FIG. 33B): increased
- Cps1 expression in vivo [24, 30]: increased
- Ass1 expression in vivo [25]: increased
- As1 expression in vivo [26]: increased
- Arg1 expression in vivo [27]: increased
- serum urea levels [28]: increased
- Nags expression in vivo [29]: increased
